Source: PMC3299684, “Two Odorant-Binding Proteins Mediate the Behavioural Response of Aphids to the Alarm Pheromone (E)-ß-farnesene and Structural Analogues” (PLoS ONE, 2012)

How the values were obtained:
OBP7 [1] = target: T1, OBP7 (Acyrthosiphon pisum, UniProt A0A8R1TDD0); assay: biochemical; design: competitive fluorescence binding assay, displacement of 1-NPN (2 uM) from recombinant OBP (2 uM), pH 7.4; conditions: for IC50: read-out: [IC]50 OBP7
T1 construct: gene 100160457; primers encode N-terminus (M)YLSEA, C-terminus EFLPL
T1 sequence (A0A8R1TDD0 31-155): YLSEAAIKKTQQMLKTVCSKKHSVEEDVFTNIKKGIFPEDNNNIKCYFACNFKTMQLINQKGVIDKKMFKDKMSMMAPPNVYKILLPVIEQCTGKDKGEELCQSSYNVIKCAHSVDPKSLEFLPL
Procedure: (§1) The probe was excited at 337 nm and emission spectra were recorded between 380 and 450 nm. […] For determining binding constants, the intensity values corresponding to the maximum of fluorescence emission were plotted against free ligand concentrations. The curves were drawn using the Prism software, that allowed calculation of the dissociation constants and the stoichiometry of binding, assuming that the protein was 100% active. […] Supplementary file pone.0032759.s002.doc: Table S1 Binding properties of the ligands utilised in ligand binding assays and behaviour experiments. For each protein, [IC]50 reports the concentration of ligand that halves the initial fluorescence intensity (both protein and 1-NPN were used at the concentration of 2 µM). Dissociation constants are calculated as reported in the Materials and Methods section. The structures of “CAU” ligands are reported in Table 1, those of “LIG” chemicals in Figure 3. […] (DOC) Click here for additional data file.

OBP3 [2] = target: T2, OBP3 (Acyrthosiphon pisum, UniProt A0A8R1XHB4); design: competitive fluorescence binding assay, displacement of 1-NPN (2 uM) from recombinant OBP (2 uM), pH 7.4; conditions: binder
T2 construct: construct not detailed here
T2 sequence (A0A8R1XHB4 24-141 limits assumed): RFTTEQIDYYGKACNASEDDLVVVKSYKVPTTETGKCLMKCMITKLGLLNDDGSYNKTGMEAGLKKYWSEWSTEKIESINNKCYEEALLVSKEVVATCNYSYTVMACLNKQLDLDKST
Procedure: as §1

OBP6 = target: T3, OBP6 (Acyrthosiphon pisum, UniProt A0A8R1TDN2); assay: biochemical; design: competitive fluorescence binding assay, displacement of 1-NPN (2 uM) from recombinant OBP (2 uM), pH 7.4
T3 sequence (A0A8R1TDN2 1-160): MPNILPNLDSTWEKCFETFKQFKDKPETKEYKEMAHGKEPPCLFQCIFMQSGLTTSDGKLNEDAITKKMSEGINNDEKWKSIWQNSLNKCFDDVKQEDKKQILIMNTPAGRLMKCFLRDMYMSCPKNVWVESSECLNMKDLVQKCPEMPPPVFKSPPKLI
Procedure: The probe was excited at 337 nm and emission spectra were recorded between 380 and 450 nm. […] For determining binding constants, the intensity values corresponding to the maximum of fluorescence emission were plotted against free ligand concentrations. The curves were drawn using the Prism software, that allowed calculation of the dissociation constants and the stoichiometry of binding, assuming that the protein was 100% active. […] Supplementary file pone.0032759.s002.doc: Table S1 Binding properties of the ligands utilised in ligand binding assays and behaviour experiments. For each protein, [IC]50 reports the concentration of ligand that halves the initial fluorescence intensity (both protein and 1-NPN were used at the concentration of 2 µM). Dissociation constants are calculated as reported in the Materials and Methods section. The structures of “CAU” ligands are reported in Table 1, those of “LIG” chemicals in Figure 3. Blank cells indicate values of [IC]50 higher than 30 µM. For these compounds dissociation constants have not been calculated. (DOC) Click here for additional data file.

OBP3 [3] = target: T2, OBP3; assay: competitive displacement of 1-NPN fluorescence; assay type: binding; conditions: 50 mM Tris-HCl pH 7.4, 25°C; protein and 1-NPN 2 µM; KD calculated from IC50
OBP7 [4] = target: T1, OBP7; assay: competitive displacement of 1-NPN fluorescence; assay type: binding; conditions: 50 mM Tris-HCl pH 7.4, 25°C; protein and 1-NPN 2 µM; KD calculated from IC50

## CC(=O)OC/C=C(\C)CCC=C(C)C [LIG-7]
OBP7 [1]
  Kd: 9.3 µM
  IC50: 18 µM

## CC(C)CCOC(=O)CCCc1ccccc1 [LIG-8]
OBP3 [2]
  Kd: 10.7 µM
OBP3 [2]; read-out: [IC]50 OBP3
  IC50: 14 µM
OBP7 [1]
  Kd: 2.8 µM
  IC50: 5.5 µM

## CC(C)CCCC(C)CCOC(=O)c1ccccc1 (centres unmarked) [LIG-4]
OBP7 [1]
  IC50: 2.5 µM
OBP6
  Kd: 13.9 µM
OBP6; read-out: [IC]50 OBP6
  IC50: 16.1 µM

## C=CC(=C)CC/C=C(\C)CCC=C(C)C [(E)-ß-farnesene]
OBP3 [3]
  KD: including (E)-ß-farnesene and structurally similar molecules, bind only OBP3 and/or OBP7
OBP7 [4]
  KD: including (E)-ß-farnesene and structurally similar molecules, bind only OBP3 and/or OBP7
